According to patent US7968526B2, “Antisense oligonucleotides directed to ribonucleotide reductase R2 and uses thereof in the treatment of cancer” (Lorus Therapeutics Inc., priority 2003, dated 2011):
Entries after “also recorded” stand apart in the source; their conditions may differ.

Key:
[1] = Acute intravenous toxicity study in the monkey; type: in vivo; conditions: rhesus monkeys
Protocol: Intravenous infusion of SEQ ID NO:1 for 24 hours at doses up to 80 mg/kg/day (984 mg/m^2/day) was well-tolerated by rhesus monkeys. […] These effects indicate an apparent inhibition of the intrinsic coagulation pathway, and modest activation of the alternative complement pathway, respectively. These treatment-related changes were typical class effects of phosphorothioate oligonucleotide administration.

[2] = test system: Caki renal tumour xenografts; test: Caki renal tumour xenografts in SCID/beige mice (immune stimulation); type: in vivo, human cells in mice; conditions: Caki renal tumour xenografts in SCID/beige mice (lack B, T and NK cell function)
Protocol: To directly determine whether SEQ ID NO:1 treatment results in CpG stimulation of NK-mediated anti-tumour activity, the efficacy of SEQ ID NO:1 on human tumour xenografts in SCID/beige mice was assessed (FIG. 32). SCID/beige mice lack B, T and NK cell function and as such these mice cannot mount a significant innate or acquired immune response.

[3] = test system: human tumour cell xenografts; test: Human tumour cell xenografts in mice, compiled tumour weights (FIG. 29); type: in vivo, human cells in mice
Protocol: CD-1 athymic female nude mice, BALB/c nu/nu nude mice, SCID, and SCID beige mice were purchased from Charles River Laboratories (Montreal, Canada) and experiments were typically initiated when the mice were 6-7 weeks old. Human tumour cells were grown in appropriate growth medium and 3×10^6−1×10^7 cells suspended in 100 μl of PBS were subcutaneously injected into the right flank of the animals with a 23 gauge needle (cell number indicated in the figure legends). Each experimental group typically contained 10 mice. After the size of tumour reached a mean tumour volume of 50-100 mm^3, treatment was initiated. Antisense oligonucleotides (dissolved in saline) were administered by bolus infusion into the tail vein of animal every other day at the indicated dose. Anti-tumour activity was estimated by the measurement of tumour volume with a calliper at two-three day intervals. Tumour volume was calculated by a formula L×W×H/2, where L indicates length, W indicates width and H indicates height. Within 24 hours after the last treatment, the animals were sacrificed and tumour and body weights were measured.
Each data point represents tumour weight and standard error. […]

[4] = test system: PC-3 human prostatic cancer cells; test: PC-3 prostatic tumour xenograft in SCID mice, combination with mitoxantrone (1.4); type: in vivo, human cells in mice; conditions: PC-3, SCID mice; SEQ ID NO:1 10 mg/kg i.v. every other day 18 times; mitoxantrone 2 mg/kg i.v. once
Protocol: After 52 days the mice were sacrificed and the tumours weighed. […] In both experiments, PC-3 human prostatic cancer cells (1×10^7 cells in 100 μl of PBS) were subcutaneously injected into the right flank of 6-7 weeks old male SCID mice. After the size of tumour reached an approximate volume of 50 mm^3, 14 days post tumour cell injection, SEQ ID NO: 1 was administered by bolus infusion into the tail vein every other day at 10 mg/kg 18 times (FIG. 4A) or 17 times (FIG. 4B), respectively. Control animals received saline alone for the same period. Antitumour effect of SEQ ID NO:1 was further compared to that of mitoxantrone (novantrone) alone or in combination. Mitoxantrone was administered intravenously once at the beginning of the treatments at a dose of 2 mg/kg (FIG. 4A) or once a week for four weeks at a reduced dose of 0.8 mg/kg (FIG. 4B). All treatments were stopped at day 50 (FIG. 4A) or 48 (FIG. 4B), respectively. A day after the last treatment, tumours were excised from the animals and their weights were measured. […] In both experiments, DU145 human prostatic cancer cells (1×10^7 cells in 100 μl of PBS) were subcutaneously injected into the right flank of 6-7 weeks old male SCID mice. After the size of tumour reached an approximate volume of 50 mm^3, 13 (FIG. 5A) or 11 (FIG. 5B) days post tumour cell injection, SEQ ID NO:1 was administered by bolus infusion into the tail vein every other day at 10 mg/kg 15 times (FIG. 5A) or 14 times (FIG. 5B), respectively. Control animals received saline alone for the same period. Antitumour effect of SEQ ID NO:1 was further compared to that of mitoxantrone (novantrone) alone or in combination. Mitoxantrone was administered intravenously once at the beginning of the treatments at a dose of 2 mg/kg (FIG. 5A) or once a week for four weeks at a reduced dose of 0.8 mg/kg (FIG. 5B). All treatments were stopped at day 42 (FIG. 5A) or 38 (FIG. 5B), respectively. A day after the last treatment, tumours were excised from the animals and their weights were measured.

[5] = Phase I study of SEQ ID NO:1: pharmacokinetics; conditions: patients
Protocol: On Day 1 a heparinized blood sample was collected at baseline and then at 1, 2, 3, 4 and 6 hours after start of infusion. On Days 8 and 15, a single heparinized sample was taken. On Day 22 a heparinized blood sample was collected prior to the end of infusion and at 0.25, 0.5, 1, 2, 4 and 6 hours following the end of infusion. Plasma was decanted and stored at −70° C.
Pharmacokinetic parameters were assessed. SEQ ID NO:1 was administered using a portable infusion pump in cycles of 21 days CVI followed by one week of rest. […] Doses were doubled in cohorts of 1-3 patients until the appearance of Gr 1 toxicity, with subsequent escalation of 20-30% in cohorts of 3 patients. DLT was defined as Gr 4 neutropenia lasting 3 days or with fever; Gr 4 thrombocytopenia (T) or Gr 3 T with Gr 1 bleeding; or Gr 3 non-hematologic toxicity.

[6] = Pharmacokinetics in the rat (plasma, CE method); type: in vivo
Protocol: The toxicokinetics and tissue distribution of SEQ ID NO:1 (and related oligonucleotide metabolites obtained from exonuclease-mediated chain shortening) were determined in rats and monkeys. In addition to investigating the pharmacokinetics and tissue distribution of SEQ ID NO:1, the purpose of the studies was to correlate adverse effects in the animal studies to the concentrations of SEQ ID NO:1 (and metabolites) in tissue and blood. A capillary electrophoresis (CE) method was used to measure the concentrations of SEQ ID NO:1 (and metabolites) in plasma and tissues.
In a pharmacokinetic study, groups of male rats were administered one or two bolus i.v. injections (tail vein) of SEQ ID NO:1 at a dose of 50 mg/kg (295 mg/m^2) and intravenously infused (abdominal vena cava) for up to 48 h at a dose of 50 mg/kg/day (295 mg/m^2/day). Blood samples were collected into EDTA-containing tubes from subsets of animals in each group at various sampling times up to 56 h after initiation of infusion or bolus injection. Parent SEQ ID NO:1 concentrations were measured in plasma by a validated CE method.

[7] = 50 mg/kg/day continuous intravenous infusion

5′-GGCTAAATCGCTCCACCAAG-3′ (all phosphorothioate, sugars by position and methylation of C not given here) [SEQ ID NO: 1, fully phosphorothioated antisense oligonucleotide that hybridizes to the coding region of R2 mRNA]
Clinical signs, body weight, blood pressure, heart rate, serum biochemistry, haematology ([1]; 24 hour i.v. infusion, any dose): No treatment-related clinical signs or changes in body weight, blood pressure, heart rate, serum biochemistry or haematology parameters
Deaths ([1]; 24 hour i.v. infusion, doses up to 80 mg/kg/day): no deaths during the study
Complement split product Bb ([1]; end of infusion at 20, 40, and 80 mg/kg/day): slight treatment-related increases in complement split product Bb
APTT ([1]; end of infusion at 40 and 80 mg/kg/day): Mild treatment-related changes in APTT
Tolerability ([1]; intravenous infusion for 24 hours at doses up to 80 mg/kg/day (984 mg/m^2/day)): well-tolerated
Anti-tumour effect (FIG. 32) [2]: effectively treated; also recorded: equivalent in extent and kinetics to that obtained in the SCID mouse model; also recorded: anti-tumour activity is specific to the R2 complementary sequence
Effect on tumour growth and endpoint weight ([3]; all cancer cell lines tested): significant decrease in tumour growth (volume over time) and endpoint weight
p, difference in tumour weight between control and oligonucleotide treated groups ([3]; range of human tumour xenografts, 2.5 mg/kg to 10 mg/kg i.v. every second day, all cases): < 0.05
Antitumour effect (tumour weight, FIG. 4A) [4]: significant delay of tumour growth compared to saline control
AUC, mean (coefficient of variation) ([5]; 37 mg/m^2/day CVI): 7.54 (141)^$ μg · hr/ml
Clearance ([5]; 37 mg/m^2/day CVI): 595 L/m^2/day
Cmax, mean (coefficient of variation) ([5]; 37 mg/m^2/day CVI): 0.09 (141) μg/ml
Css, mean (coefficient of variation) ([5]; 37 mg/m^2/day CVI): 0.03 (141) μg/ml
AUC, mean (coefficient of variation) ([5]; 74 mg/m^2/day CVI): 15.5 (141) μg · hr/ml
Cmax, mean (coefficient of variation) ([5]; 74 mg/m^2/day CVI): 0.61 (141) μg/ml
AUC, mean (coefficient of variation) ([5]; 148 mg/m^2/day CVI): 426 (87) μg · hr/ml
Clearance, mean (coefficient of variation) ([5]; 148 mg/m^2/day CVI): 244 (90) L/m^2/day
Cmax, mean (coefficient of variation) ([5]; 148 mg/m^2/day CVI): 2.2 (41) μg/ml
Css, mean (coefficient of variation) ([5]; 148 mg/m^2/day CVI): 0.77 (94) μg/ml
T1/2, mean (coefficient of variation) ([5]; 148 mg/m^2/day CVI): 0.79 (25) hr
AUC, mean (coefficient of variation) ([5]; 185 mg/m^2/day CVI): 340 (67) μg · hr/ml
Clearance, mean (coefficient of variation) ([5]; 185 mg/m^2/day CVI): 558 (119) L/m^2/day
Cmax, mean (coefficient of variation) ([5]; 185 mg/m^2/day CVI): 2.15 (57) μg/ml
Css, mean (coefficient of variation) ([5]; 185 mg/m^2/day CVI): 0.63 (98) μg/ml
T1/2, mean (coefficient of variation) ([5]; 185 mg/m^2/day CVI): 2.74 (171) hr
AUC, mean (coefficient of variation) ([5]; 222 mg/m^2/day CVI): 380 (94) μg · hr/ml
Clearance, mean (coefficient of variation) ([5]; 222 mg/m^2/day CVI): 483 (161) L/m^2/day
Cmax, mean (coefficient of variation) ([5]; 222 mg/m^2/day CVI): 2.98 (99) μg/ml
Css, mean (coefficient of variation) ([5]; 222 mg/m^2/day CVI): 1.24 (87) μg/ml
T1/2, mean (coefficient of variation) ([5]; 222 mg/m^2/day CVI): 1.43 (46) hr
mean steady-state plasma concentration ([5]; phase II dose (185 mg/m^2/day), preliminary analysis): 0.6 µg/mL
t1/2 ([5]; preliminary analysis): about 2 hrs
AUC(0-24) [6, 7]: 208 µg·h/mL
Cl (plasma clearance) [6, 7]: 3.6 mL/min/kg
Css (mean plasma steady state concentration) [6, 7]: 9.62 µg/mL
Time after infusion initiation at which steady state level was achieved [6, 7]: approximately 3 hr
AUC(0-24) ([6]; 50 mg/kg/day i.v. bolus): 369 µg·h/mL
AUC(0-inf) ([6]; 50 mg/kg/day i.v. bolus): 650 µg·h/mL
AUC(0-t) ([6]; 50 mg/kg/day i.v. bolus): 637 µg·h/mL
Cl (plasma clearance) ([6]; 50 mg/kg/day i.v. bolus): 2.57 mL/min/kg
Kel ([6]; 50 mg/kg/day i.v. bolus): 0.5109 h⁻¹
T1/2 (plasma half-life) ([6]; 50 mg/kg/day i.v. bolus): 81.6 min
Tmax ([6]; 50 mg/kg/day i.v. bolus): 4.98 min
Cmax ([6]; 50 mg/kg/day i.v. bolus, after second bolus injection): 679 µg/mL
